Laboratory results from patent US10670605B2, “Cysteine reactive probes and uses thereof” (The Scripps Research Institute, priority 2015, dated 2020).

Tests used:
PELI1 C282 (Q96FA3) = target: T1, PELI1 C282 (Q96FA3) (Homo sapiens, UniProt Q96FA3); assay: Competitive isoTOP-ABPP, cell lysates; assay type: binding; details: for isoTOP-ABPP ratio (reactivity profile), Q96FA3_C282: 500 μm in-vitro ramos; for isoTOP-ABPP reactivity ratio, Q96FA3_C282 / isoTOP-ABPP reactivity profile ratio, Q96FA3_C282: 500 μm, in-vitro_ramos
T1 sequence (Q96FA3 1-418): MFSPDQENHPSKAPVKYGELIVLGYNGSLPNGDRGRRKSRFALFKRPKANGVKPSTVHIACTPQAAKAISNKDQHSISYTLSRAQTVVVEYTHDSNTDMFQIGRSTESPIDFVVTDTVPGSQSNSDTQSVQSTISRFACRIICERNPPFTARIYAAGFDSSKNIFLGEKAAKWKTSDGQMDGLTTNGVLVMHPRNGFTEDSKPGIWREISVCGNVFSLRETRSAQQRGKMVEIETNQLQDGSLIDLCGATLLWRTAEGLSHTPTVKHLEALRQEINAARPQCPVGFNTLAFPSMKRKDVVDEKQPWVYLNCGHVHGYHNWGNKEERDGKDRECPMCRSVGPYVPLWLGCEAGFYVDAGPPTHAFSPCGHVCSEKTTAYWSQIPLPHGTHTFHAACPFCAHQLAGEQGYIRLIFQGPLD

VCPIP1 C219 (Q96JH7) = target: T2, VCPIP1 C219 (Q96JH7) (Homo sapiens, UniProt Q96JH7); assay: Competitive isoTOP-ABPP, cell lysates; assay type: binding; details: for isoTOP-ABPP reactivity profile ratio, Q96JH7_C219 / isoTOP-ABPP reactivity ratio, Q96JH7_C219: 500 μm, in-vitro_ramos; for R value (DMSO/fragment): 500 μM
T2 sequence (Q96JH7 1-1222): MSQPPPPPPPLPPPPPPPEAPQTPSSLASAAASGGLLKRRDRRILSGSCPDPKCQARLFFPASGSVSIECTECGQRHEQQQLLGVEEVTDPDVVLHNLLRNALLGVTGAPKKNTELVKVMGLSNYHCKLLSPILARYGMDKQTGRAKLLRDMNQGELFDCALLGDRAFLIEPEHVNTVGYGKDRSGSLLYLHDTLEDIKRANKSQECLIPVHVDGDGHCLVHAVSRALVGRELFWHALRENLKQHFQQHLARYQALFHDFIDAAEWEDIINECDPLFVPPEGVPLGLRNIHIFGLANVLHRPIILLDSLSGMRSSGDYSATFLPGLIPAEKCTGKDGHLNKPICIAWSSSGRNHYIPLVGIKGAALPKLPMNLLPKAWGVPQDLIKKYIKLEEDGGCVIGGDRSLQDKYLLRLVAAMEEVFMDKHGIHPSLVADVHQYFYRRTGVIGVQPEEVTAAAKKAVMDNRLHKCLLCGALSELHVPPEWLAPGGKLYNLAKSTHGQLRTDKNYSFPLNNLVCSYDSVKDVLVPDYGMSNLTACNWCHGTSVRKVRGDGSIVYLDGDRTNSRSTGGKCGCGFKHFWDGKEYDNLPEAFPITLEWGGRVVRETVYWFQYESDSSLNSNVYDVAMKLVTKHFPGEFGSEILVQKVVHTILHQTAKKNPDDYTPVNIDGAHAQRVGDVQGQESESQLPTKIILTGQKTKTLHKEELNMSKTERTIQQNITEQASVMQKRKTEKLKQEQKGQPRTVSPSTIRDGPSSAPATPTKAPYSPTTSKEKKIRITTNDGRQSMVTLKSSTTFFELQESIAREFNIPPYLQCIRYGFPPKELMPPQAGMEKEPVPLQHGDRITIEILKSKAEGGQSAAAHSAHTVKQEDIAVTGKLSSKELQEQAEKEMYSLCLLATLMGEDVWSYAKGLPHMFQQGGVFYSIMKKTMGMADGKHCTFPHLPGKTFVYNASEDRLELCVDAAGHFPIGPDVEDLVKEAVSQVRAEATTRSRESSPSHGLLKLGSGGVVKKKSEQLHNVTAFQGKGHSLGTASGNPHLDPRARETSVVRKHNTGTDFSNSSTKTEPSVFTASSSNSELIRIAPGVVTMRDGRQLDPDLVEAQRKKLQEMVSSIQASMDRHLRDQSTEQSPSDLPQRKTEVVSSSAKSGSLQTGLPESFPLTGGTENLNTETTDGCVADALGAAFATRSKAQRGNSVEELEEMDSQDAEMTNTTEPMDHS

With `O=C(/C=C/c1ccccc1)Nc1cc(C(F)(F)F)cc(C(F)(F)F)c1` [compound 26] the “isoTOP-ABPP ratio (reactivity profile), Q96FA3_C282” value (PELI1 C282 (Q96FA3)) was 0.5.
For `O=C(CCl)Nc1cccc2ncccc12` [compound 51], the “isoTOP-ABPP reactivity profile ratio, Q96JH7_C219” value (VCPIP1 C219 (Q96JH7)) was 2.3.
With `CC(C)CCOCCNC(=O)CCl` [compound 27] the “isoTOP-ABPP ratio (reactivity profile), Q96JH7_C219” value (“isoTOP-ABPP ratio … Q96JH7_C219” below) (VCPIP1 C219 (Q96JH7); 500 μm in-vitro ramos_231) was 1.7.
In the case of `O=C(CCl)N1CCC(C(O)(c2ccccc2)c2ccccc2)CC1` [compound 20], the “isoTOP-ABPP ratio … Q96JH7_C219” value (VCPIP1 C219 (Q96JH7); 500 μm in-vitro ramos) is reported as 1.2.
With `CCN(CC)c1ccc(S(N)(=O)=O)cc1NC(=O)CCl` [compound 30] the “isoTOP-ABPP reactivity ratio, Q96FA3_C282” value (PELI1 C282 (Q96FA3)) was 1.5.
For `N#CC(=Cc1ccc(-c2ccccc2Cl)o1)C(N)=O` [compound 42], the “isoTOP-ABPP reactivity profile ratio, Q96FA3_C282” value (PELI1 C282 (Q96FA3)) was 1.2.
With `C=CC(=O)Nc1cc(C)c(Br)cc1C` [compound 40] the “isoTOP-ABPP reactivity ratio, Q96JH7_C219” value (VCPIP1 C219 (Q96JH7)) was 1.9.
In the case of `COc1ccc2c(c1)CCCN2C(=O)CCl` [compound 2], the “R value (DMSO/fragment)” value (VCPIP1 C219 (Q96JH7); invitro, ramos) is reported as 1.1.
`COc1ccccc1OCCNC(=O)CCl` [compound 28] was tested, and the “isoTOP-ABPP ratio (reactivity profile), Q96FA3_C282” value (PELI1 C282 (Q96FA3)) was 0.7.
For `C=CC(=O)N(Cc1cccnc1)c1ccc(Oc2ccccc2)c(C(F)(F)F)c1` [compound 15], the “isoTOP-ABPP ratio … Q96JH7_C219” value (VCPIP1 C219 (Q96JH7); 500 μm in-vitro ramos) was 1.3.
For `CC(Br)C(=O)Nc1cc(C(F)(F)F)cc(C(F)(F)F)c1` (stereo not drawn) [compound 24], the “isoTOP-ABPP ratio … Q96JH7_C219” value (VCPIP1 C219 (Q96JH7); 500 μm in-vitro ramos) was 1.2.
For `O=C(CCl)Nc1cc(C(F)(F)F)cc(C(F)(F)F)c1` [compound 3], the “R value (DMSO/fragment)” value (VCPIP1 C219 (Q96JH7); in vitro, MDA-MB-231) was 20.0 and the “R value (DMSO/fragment)” value (VCPIP1 C219 (Q96JH7); invitro, ramos) was 15.1.
`O=C(CCl)Nc1ccc(-c2ccccc2)cc1` [compound 52] was tested, and the “isoTOP-ABPP reactivity profile ratio, Q96FA3_C282” value (PELI1 C282 (Q96FA3)) was 20.0 and the “isoTOP-ABPP reactivity profile ratio, Q96JH7_C219” value (VCPIP1 C219 (Q96JH7)) was 1.6.
With `C=CC(=O)Nc1cc(F)c(N2CCN(C(=O)OC(C)(C)C)CC2)c(F)c1` [compound 38] the “isoTOP-ABPP reactivity ratio, Q96FA3_C282” value (PELI1 C282 (Q96FA3)) was 7.0 and the “isoTOP-ABPP reactivity ratio, Q96JH7_C219” value (VCPIP1 C219 (Q96JH7)) was 1.8.
For `C=CC(=O)N(Cc1cccnc1)c1cc(C(F)(F)F)cc(C(F)(F)F)c1` [compound 31], the “isoTOP-ABPP reactivity ratio, Q96JH7_C219” value (VCPIP1 C219 (Q96JH7)) was 1.0.
